Measurements: patent US20230331803A1, “CO-AGONISTS OF THE GLP-1 AND AMYLIN RECEPTORS” (priority 2020, published 2023)
Read-outs that look alike come from different tables or passages of the source. Starred links: 1 amine or outer side, 2 acyl side, 3 side chain; linkers in the order of their positions; H or OH if unused. Non-standard residues stand in square brackets, D forms with d. Groups on a side chain read outwards from the residue. *: point of attachment. Decanoyl(10-(4-HOOC-PhO)) = O=C(O)c1ccc(OCCCCCCCCCC(=O)*)cc1; C20 diacid = O=C(O)CCCCCCCCCCCCCCCCCCC(=O)*; C18 diacid = O=C(O)CCCCCCCCCCCCCCCCC(=O)*; γGlu = O=C(O)[C@H](CCC(=O)[*:2])N[*:1]; εLys = N[C@@H](CCCCN[*:1])C(=O)[*:2]; Trx = NC[C@H]1CC[C@H](C(=O)O)CC1; AEEA = NCCOCCOCC(=O)O; Aib = CC(C)(N)C(=O)O

B1: HWEGTFTSDVSSYLEEQAAR-K([2-[2-[2-[[2-[2-[2-[[(4S)-4-Carboxy-4-[[4-[(19-Carboxynonadecanoylamino)Methyl]Cyclohexanecarbonyl]Amino]Butanoyl]Amino]Ethoxy]Ethoxy]Acetyl]Amino]Ethoxy]Ethoxy]Acetyl])-FIEWLVR … (peptide)
peptide: HWEGTFTSDVSSYLEEQAARK([AEEA-AEEA-γGlu-4‑(aminomethyl)cyclohexanecarbonyl-C20 diacid])FIEWLVRGRGEGGGGGASELSTAALGRLSAELHELATLPRTETGSGSP-NH2
B2: H-Aib-EGTFTSDVSSYLEEQAAREFIAWLVRGRP-K([2-[2-[2-[[2-[2-[2-[[(4S)-4-Carboxy-4-[[4-[(19-Carboxynonadecanoylamino)Methyl]Cyclohexanecarbonyl]Amino]Butanoyl]Amino]Ethoxy]Ethoxy]Acetyl]Amino]Ethoxy]Ethoxy]A … (peptide)
peptide: H[Aib]EGTFTSDVSSYLEEQAAREFIAWLVRGRPK([AEEA-AEEA-γGlu-4‑(aminomethyl)cyclohexanecarbonyl-C20 diacid])GGGGEASELSTAALGRLSAELHELATLPRTETGSGSP-NH2
B3: H-Aib-EGTFTSDVSSYLEEQAAREFIAWLVRGR-K([(2S)-2-Amino-6-[[2-[2-[2-[[2-[2-[2-[[(4S)-4-Carboxy-4-[[4-[(19-Carboxynonadecanoylamino)Methyl]Cyclohexanecarbonyl]Amino]Butanoyl]Amino]Ethoxy]Ethoxy]Acetyl]Amino … (peptide)
peptide: H[Aib]EGTFTSDVSSYLEEQAAREFIAWLVRGRK([εLys-AEEA-AEEA-γGlu-4‑(aminomethyl)cyclohexanecarbonyl-C20 diacid])GGGGEASELSTAALGRLSAELHELATLPRTETGSGSP-NH2
B4: H-Aib-EGTFTSDVS-K([2-[2-[2-[[2-[2-[2-[[(4S)-4-Carboxy-4-[[4-[(19-Carboxynonadecanoylamino)Methyl]Cyclohexanecarbonyl]Amino]Butanoyl]Amino]Ethoxy]Ethoxy]Acetyl]Amino]Ethoxy]Ethoxy]Acetyl])-YLEEQAAREFIA … (peptide)
peptide: H-H[Aib]EGTFTSDVSK([AEEA-AEEA-γGlu-4‑(aminomethyl)cyclohexanecarbonyl-C20 diacid])YLEEQAAREFIAWLVRGRGGGGGEASELSTAALGRLSAELHELATLPRTETGSGSP-NH2

Experiments:
[1] = molecular target: T1, human GLP-1 receptor (Homo sapiens, UniProt P43220); assay: Human GLP-1 receptor in vitro potency assay (CRE-luciferase reporter, BHK cells); format: cell-based
T1 construct: expressed in transfected cells; host or cells: BHK (Baby Hamster Kidney) cells, clone BHK 467-12A KZ-10, stably transfected, with CRE-luciferase reporter
T1 sequence (P43220 24-463): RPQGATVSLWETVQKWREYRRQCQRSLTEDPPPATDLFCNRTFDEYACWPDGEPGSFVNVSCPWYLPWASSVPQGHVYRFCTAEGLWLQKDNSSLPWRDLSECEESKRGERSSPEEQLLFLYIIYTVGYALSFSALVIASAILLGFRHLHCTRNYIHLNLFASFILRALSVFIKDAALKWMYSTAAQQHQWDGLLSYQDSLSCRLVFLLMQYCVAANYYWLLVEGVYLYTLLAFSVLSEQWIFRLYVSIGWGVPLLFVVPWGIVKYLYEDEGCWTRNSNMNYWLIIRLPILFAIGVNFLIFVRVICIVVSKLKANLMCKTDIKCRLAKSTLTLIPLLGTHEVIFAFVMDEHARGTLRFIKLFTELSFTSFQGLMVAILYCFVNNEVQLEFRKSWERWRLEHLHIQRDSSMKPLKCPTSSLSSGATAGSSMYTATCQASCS
Procedure: It is thus possible to measure GLP-1 receptor activity using a CRE-luciferase reporter gene introduced into Baby Hamster Kidney (BHK) cells co-expressing the GLP-1 receptor.
Cells were aliquoted and stored at -180° C. until use.
Plates were sealed and incubated at room temperature with gentle shaking for 30 minutes while protected from light. Luminescence was detected on a luminescence plate reader e.g. a Synergy 2 (BioTek).

[2] = Pharmacokinetic studies in Beagle dogs after oral administration of SNAC-based tablets; format: in vivo; settings: dogs, oral administration (tablet); for half-life: read-out: T½ (converted)
Procedure: To be able to evaluate oral exposure following tablet dosing, tablet compositions comprising the test substance and SNAC (sodium N-(8-(2-hydroxybenzoyl)amino)caprylate) were prepared by mixing test substance with roller compacted SNAC and magnesium stearate as, e.g., described in WO 2019/149880. The amount of SNAC in the tablet composition was 100-300 mg, the amount of magnesium stearate in the tablet composition was 7.7 mg, and the target amount of each test substance in the tablet composition was 3-4 mg.
Pharmacokinetic (PK) studies in Beagle dogs were conducted to determine the exposure of the GLP-1 receptor-amylin receptor co-agonist after peroral administration.
For the pharmacokinetic studies male Beagle dogs were used, 2-7, or 1 to 5, years of age and weighing approximately 10-15, such as 10-12, kg at the start of the studies. The dogs were group housed in pens (12 hours light: 12 hours dark),and fed individually and restrictedly once daily with Royal Canin Medium Adult dog (Royal Canin Products, China Branch, or Brogaarden A/S, Denmark). Exercise and group social were permitted daily, whenever possible. The dogs were used for repeated pharmacokinetic studies with a suitable wash-out period between successive dosing. An appropriate acclimatisation period was given prior to initiation of the first pharmacokinetic study. All handling, dosing and blood sampling of the animals were performed by trained and skilled staff. Before the studies the dogs were fasted overnight and from 0 to 4 h after dosing. Besides, the dogs were restricted to water 1 hour before dosing until 4 hours after dosing, but otherwise have ad libitum access to water during the whole period.
The tablets used for the p.o. studies described herein were immediate release SNAC-based tablets dosed orally.
The tablets were administered in the following manner: 10 min prior to tablet administration the dogs may be dosed subcutaneously with approximately 3 nmol/kg of SEQ ID NO: 237, tablets were placed in the back of the mouth of the dog to prevent chewing. The mouth was then closed, and 10 mL of tap water was given by a syringe or gavage to facilitate swallowing of the tablet.
Blood was sampled at predefined time points for up till 240 hours, such as up till 10 hr, post dosing to adequately cover the full plasma concentration-time absorption profile of the GLP-1 agonist.
For each blood sampling time point approximately 0.8 mL of whole blood was collected in a 1.5 mL EDTA coated tube, and the tube was gently turned to allowing mixing of the sample with the EDTA. Blood samples (for example 0.8 mL) were collected in EDTA buffer (8 mM) and then centrifuged at 4° C. and 2000 G for 10 minutes. Plasma was pipetted into Micronic tubes on dry ice, and kept at -20° C. until analysis.
Blood samples were taken as appropriate, for example from a venflon in the cephalic vein in the front leg for the first 2 hours and then with syringe from the jugular vein for the rest of the time points (the first few drops were allowed to drain from the venflon to avoid heparin saline from the venflon in the sample).
Plasma concentration of the GLP-1 receptor-amylin receptor co-agonists were determined using LCMS. Individual plasma concentration-time profiles were analysed by a non-compartmental model in WinNonlin v. 5.0 or Phoenix v. 6.2 or 6.3 (Pharsight Inc., Mountain View, CA, USA), or other relevant software for PK analysis.
The individual plasma concentration-time profiles were analysed by non-compartmental analysis (NCA).

[3] = test system: Sprague Dawley (SD) rats; assay: Acute food intake in ad libitum fed rats after a single subcutaneous administration; format: in vivo, rat; settings: Table 6a, rat, single administration;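 note: food intake monitored in the HM2 system, three rats per cage kept on a reversed light cycle, with food and water freely available after the subcutaneous dose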
From the text: Sprague Dawley (SD) rats from Taconic Europe, Denmark were used for the acute food intake experiments, wherein the principles of laboratory animal care were followed.
The rats arrived at least 10-14 days before the start of the experiment to allow acclimatisation to experimental settings. During this period, the animals were handled at least 2 times. Immediately upon arrival, rats were put on a reversed light cycle (dark from 11am - 11pm) and put in the HM2 system and ID chipped. Three rats were housed in each cage. […] The rats were dosed once according to body weight with a 0.01-3 mg/kg solution administered subcutaneously (sc). The time of dosing was recorded for each group.
After dosing, the rats were returned to their home cages, where they had access to food and water. […] At the end of the experimental session, the animals were euthanised.

[4] = molecular target: T2, human amylin receptor (hAmyR3) (Homo sapiens, UniProt O60896+P30988); assay: Human amylin receptor in vitro potency assay (CRE-luciferase reporter, BHK cells); format: cell-based;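 note: BHK cells expressing human calcitonin receptor plus RAMP3 (amylin-3 receptor) with a CRE-luciferase reporter, agonist activity read as luminescence from cAMP-driven transcription, 7-point serial dilutions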
T2 construct: host or cells: BHK cells (Hollex-1 line: human calcitonin receptor (a) + CRE-Luc), further transfected with human RAMP3
T2 sequence (P30988 25-474): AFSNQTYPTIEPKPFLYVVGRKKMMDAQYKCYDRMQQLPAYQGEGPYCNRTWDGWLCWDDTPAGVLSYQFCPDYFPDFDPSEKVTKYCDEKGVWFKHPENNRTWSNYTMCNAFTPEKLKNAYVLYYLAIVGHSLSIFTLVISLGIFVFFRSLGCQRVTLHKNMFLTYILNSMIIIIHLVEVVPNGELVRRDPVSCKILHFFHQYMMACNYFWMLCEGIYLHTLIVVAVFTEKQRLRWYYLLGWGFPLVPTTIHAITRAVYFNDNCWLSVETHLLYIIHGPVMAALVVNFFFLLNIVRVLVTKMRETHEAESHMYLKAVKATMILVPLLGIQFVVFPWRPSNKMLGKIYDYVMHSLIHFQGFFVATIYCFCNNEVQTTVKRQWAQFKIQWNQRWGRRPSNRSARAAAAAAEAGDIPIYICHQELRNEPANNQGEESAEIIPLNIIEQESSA
T2 sequence (O60896 24-148): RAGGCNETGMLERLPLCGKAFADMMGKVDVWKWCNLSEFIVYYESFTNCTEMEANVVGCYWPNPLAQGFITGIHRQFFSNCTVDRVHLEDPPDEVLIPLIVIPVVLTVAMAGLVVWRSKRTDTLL

[5] = male, Beagle, dog, in vivo, read-out: Tmax
[6] = Table 4a, BHK cells expressing human GLP-1R, CRE-Luc, 3 hours, read-out: Human GLP-1R potency [EC50 (pM)]
[7] = Table 4a, BHK hAmyR3/CRE-Luc cells, 3 hours, read-out: Human AmyR3 potency [EC50 (pM)]

Row | Molecule | EC50 [1] | AUC/D [2] | Cmax/D [2] | Tmax [2, 5] | half-life ([2]; male, Beagle, dog, in vivo) | Food intake relative to vehicle (%) 0-24 hr, 10 nmol/kg [3] | Food intake relative to vehicle (%) 24-48 hr, 10 nmol/kg [3] | EC50 [4] | EC50 [1, 6] | EC50 [4, 7] | Tmax [2] | T½ [2]
1 | CC[C@H](C)[C@H](NC(=O)[C@H](Cc1ccccc1)NC(=O)[C@H](CCC(=O)O)NC(=O)[C@H](CCCNC(=N)N)NC(=O)[C@H](C)NC(=O)[C@H](C)NC(=O)[C@H](CCC(N)=O)NC(=O)[C@H](CCC(=O)O)NC(=O)[C@H](CCC(=O)O)NC(=O)[C@H](CC(C)C)NC(=O)[C@H](Cc1ccc(O)cc1)NC(=O)[C@H](CO)NC(=O)[C@H](CO)NC(=O)[C@H](CCCCNC(=O)COCCOCCNC(=O)COCCOCCNC(=O)CC[C@H](NC(=O)[C@H]1CC[C@H](CNC(=O)CCCCCCCCCCCCCCCCCCC(=O)O)CC1)C(=O)O)NC(=O)[C@H](CC(=O)O)NC(=O)[C@H](CO)NC(=O)[C@@H](NC(=O)[C@H](Cc1ccccc1)NC(=O)[C@@H](NC(=O)CNC(=O)[C@H](CCC(=O)O)NC(=O)C(C)(C)NC(=O)[C@@H](N)Cc1c[nH]cn1)[C@@H](C)O)[C@@H](C)O)C(=O)N[C@@H](CCC(=O)O)C(=O)N[C@@H](Cc1c[nH]c2ccccc12)C(=O)N[C@@H](CC(C)C)C(=O)N[C@H](C(=O)N[C@@H](CCCNC(=N)N)C(=O)NCC(=O)N[C@@H](CCCNC(=N)N)C(=O)NCC(=O)N[C@@H](CCC(=O)O)C(=O)N[C@@H](C)C(=O)N[C@@H](CO)C(=O)N[C@@H](CCC(=O)O)C(=O)N[C@@H](CC(C)C)C(=O)N[C@@H](CO)C(=O)N[C@H](C(=O)N[C@@H](C)C(=O)N[C@@H](C)C(=O)N[C@@H](CC(C)C)C(=O)NCC(=O)N[C@@H](CCCNC(=N)N)C(=O)N[C@@H](CC(C)C)C(=O)N[C@@H](CO)C(=O)N[C@@H](C)C(=O)N[C@@H](CCC(=O)O)C(=O)N[C@@H](CC(C)C)C(=O)N[C@@H](Cc1c[nH]cn1)C(=O)N[C@@H](CCC(=O)O)C(=O)N[C@@H](CC(C)C)C(=O)N[C@@H](C)C(=O)N[C@H](C(=O)N[C@@H](CC(C)C)C(=O)N1CCC[C@H]1C(=O)N[C@@H](CCCNC(=N)N)C(=O)N[C@H](C(=O)N[C@@H](CCC(=O)O)C(=O)N[C@H](C(=O)NCC(=O)N[C@@H](CO)C(=O)NCC(=O)N[C@@H](CO)C(=O)N1CCC[C@H]1C(N)=O)[C@@H](C)O)[C@@H](C)O)[C@@H](C)O)[C@@H](C)O)C(C)C [Compound 0440] | 5.7 pM | 5.78 kg·h/L | 0.29 kg/L | 1.8 h | 32 h | 81% | 77% | 10.4 pM | – | – | – | –
2 | H-HWEGTFTSDVSSYLEEQAARK([AEEA-AEEA-γGlu-Decanoyl(10-(4-HOOC-PhO))])FIEWLVRGRGEGGGGGASELSTAALGRLSAELHELK([AEEA-AEEA-γGlu-Decanoyl(10-(4-HOOC-PhO))])TLPRTETGSGSP-NH2 [Compound 0232] | 6.4 pM | 2.00 kg·h/L | 0.51 kg/L | 0.8 h | 4 h | 61% | 95% | 74.2 pM | – | – | – | –
3 | H-HWEGTFTSDVSSYLEEQAARK([AEEA-AEEA-γGlu-Decanoyl(10-(4-HOOC-PhO))])FIEWLVRGRGEGGGGGASELSTAALGRLSK([AEEA-AEEA-γGlu-Decanoyl(10-(4-HOOC-PhO))])ELHELATLPRTETGSGSP-NH2 [Compound 0231] | 5.6 pM | 0.83 kg·h/L | 0.27 kg/L | 1 h | 6 h | 27% | 76% | 68 pM | – | – | – | –
4 | HWEGTFTSDVSSYLEEK([εLys-AEEA-AEEA-γGlu-Trx-C20 diacid])AAREFIEWLVRGRGEASELSTAALGRLSAELHELATLPRTETGSGSP-NH2 [Compound 0434] | – | – | – | – | – | 39% | 105% | – | 11.8 pM | 13.9 pM | – | –
5 | HWEGTFTSDVSSYLEEQAARK([AEEA-AEEA-γGlu-Decanoyl(10-(4-HOOC-PhO))])FIEWLVRGK([AEEA-AEEA-γGlu-Decanoyl(10-(4-HOOC-PhO))])GEGGGGGEASELSTAALGRLSAELHELATLPRTETGSGSP-NH2 [Compound 0100] | 6.8 pM | – | – | – | – | 85% | 86% | 30.4 pM | – | – | – | –
6 | H[Aib]EGTFTSDVSSYLEEQAARK([AEEA-AEEA-γGlu-C18 diacid])FIAWLVRGRK([AEEA-AEEA-γGlu-C18 diacid])GGEASELSTAALGRLSAELHELATLPRTETGSGSP-NH2 [Compound 0116] | – | – | – | – | – | 83% | 82% | – | 1.5 pM | 21.7 pM | – | –
7 | H[Aib]EGTFTSDVSSYLEEQAARK([γGlu-C18 diacid])FIAWLVRGRK([γGlu-C18 diacid])EASELSTAALGRLSAELHELATLPRTETGSGSP-NH2 [Compound 0131] | – | – | – | – | – | 70% | 80% | – | 16.1 pM | 14.5 pM | – | –
8 | B1 | – | 19.54 kg·h/L | 0.36 kg/L | – | – | 71% | 46% | – | – | – | 1.8 h | 40 h
9 | B2 | – | 3.25 kg·h/L | 0.12 kg/L | – | – | 73% | 53% | – | – | – | 3.0 h | 25 h
10 | B3 | – | 6.53 kg·h/L | 0.14 kg/L | – | – | 47% | 44% | – | – | – | 2.0 h | 23 h
11 | B4 | – | 11.10 kg·h/L | 0.45 kg/L | – | – | 50% | 45% | – | – | – | 2.0 h | 27 h
